Laboratory results: publication PMC3618987, “From BACE1 Inhibitor to Multifunctionality of Tryptoline and Tryptamine Triazole Derivatives for Alzheimer’s Disease” (Molecules, 2012)

Key:
β-Secretase (BACE1) = biological target: T1, β-Secretase (BACE1) (Homo sapiens, UniProt P56817); test: β-Secretase inhibition assay (fluorogenic substrate IV); assay type: biochemical; details: for inhibition at 25 µM: read-out: BACE1 % Inhibition (at 25 µM) (±SEM)
T1 construct: purchased Sino Biological
Experimental: β-Secretase enzyme was reconstituted with 50 mM Tris (pH 7.5), 10% glycerol to yield concentration of 0.5 unit/µL. The enzyme stock solution was diluted with 100 mM sodium acetate buffer (pH 4.5) to 0.01 unit/µL. Thirty microliters of enzyme solution were added to each well that contained 20 µL of 5% DMSO of test compound. Then, fifty microliters of 50 µM β-secretase substrate IV from Calbiochem were added to the reaction plate. […] The assays were run in triplicate.

amyloid-β (1-42) peptide [1] = biological target: T2, amyloid-β (1-42) peptide (Homo sapiens, UniProt P05067); test: Amyloid β aggregation assay (ThT fluorescence); assay type: biochemical; details: Aβ(1-42), 48 h; for inhibition at 100 µM: read-out: Anti-Aβ aggregation % Inhibition (at 100 µM) (±SEM)
T2 construct: Stock solution of amyloid-β (1-42) peptide (Anaspec; 1384 µM in 1% NH4OH); purchased Anaspec
T2 sequence (P05067 672-713 limits assumed): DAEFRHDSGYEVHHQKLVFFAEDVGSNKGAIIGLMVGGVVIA
Experimental: Nine microliters amyloid-β solution was added to a greiner transparent 96 well plate. One microliter of each test compounds (1,000 µM in DMSO) were added to each well and mixed gently by tapping. The final concentrations of each compound were 100 µM in 10% DMSO. The reaction plate was incubated in dark at 37 °C for 48 h. After incubation, 200 µL of 5 µM ThT (Sigma) in 50 mM Tris buffer (pH 7.4) was added to each well. The fluorescence was measured at Ex = 446 nm and Em = 490 nm by using SpectraMax Gemini EM^TM [30]. The assays were run in triplicate.

[2] = Fe (II) chelation capacity assay (ferrozine)
Experimental: An aqueous solution of 0.2 mM ferrous sulphate was prepared. Fifty microliters of this solution was added to 96 well plate, then 40 µL of 500 µM of test compounds in 50% DMSO were added to each well followed by DI water to adjust the volume to 150 µL. The mixtures were incubated at room temperature for 10 min. After incubation, 50 µL of 1 mM ferrozine (Sigma) was added to the reaction mixture. The absorbance was measured at 562 nm by using infinite 200 pro^TM, Tecan. EDTA was used as a positive control. Chelation capacity of each compounds were calculated. Compounds having chelating capacity over than 50% were evaluated for stoichiometric ratio of compound: metal.

[3] = Free radical scavenging assay (DPPH)
Experimental: The test samples were prepared in 50% DMSO at 500 µM. Seventy microliters of DPPH solution (500 µM in methanol) was added to 96 well plate. The assay mixture was adjusted to 80 µL volume by methanol. After adjusting the volume, 20 µL of test compounds was added to each well. The reaction plate was incubated at room temperature in dark for 30 min. The absorbance was measured at 517 nm by using infinite 200 pro^TM, Tecan. Ascorbic acid was used as a positive control. Percent inhibition was calculated and compounds showing activity were evaluated for the IC50 values.

amyloid-β (1-42) peptide [4] = biological target: T2, amyloid-β (1-42) peptide; test: Amyloid β aggregation assay (ThT fluorescence); assay type: biochemical; details: Aβ(1-42), read-out: Anti-Aβ aggregation IC50

T1 sequence (P56817 46-501): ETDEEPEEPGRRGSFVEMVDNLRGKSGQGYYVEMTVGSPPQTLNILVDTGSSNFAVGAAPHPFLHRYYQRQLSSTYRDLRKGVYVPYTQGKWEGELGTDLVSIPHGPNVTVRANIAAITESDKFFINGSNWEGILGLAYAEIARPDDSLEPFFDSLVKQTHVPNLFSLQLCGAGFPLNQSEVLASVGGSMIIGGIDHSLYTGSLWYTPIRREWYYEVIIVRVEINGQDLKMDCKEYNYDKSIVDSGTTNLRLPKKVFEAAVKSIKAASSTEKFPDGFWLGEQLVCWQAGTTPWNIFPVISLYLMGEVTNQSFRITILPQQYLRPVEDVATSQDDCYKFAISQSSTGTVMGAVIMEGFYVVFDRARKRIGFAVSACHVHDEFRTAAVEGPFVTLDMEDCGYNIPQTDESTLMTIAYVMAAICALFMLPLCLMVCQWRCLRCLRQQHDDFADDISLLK

inhibition at 25 µM (β-Secretase (BACE1)) [%] | inhibition at 100 µM (amyloid-β (1-42) peptide [1]) [%] | Compound | Fe chelation % Capacity (at 100 µM) (±SEM) [2] | DPPH % Inhibition (at 100 µM) (±SEM) [3] | other results
78.9 | 10.1 | Clc1ccc(-c2cn(C[C@@H]3Cc4c([nH]c5ccccc45)CN3)nn2)cc1Cl [Compound 6c, (S)-3-((4-(3,4-Dichlorophenyl)-1H-1,2,3-triazol-1-yl)methyl)-2,3,4,9-tetrahydro-1H-pyrido[3,4-b]-indole] | 15.88 (±0.21) % | – | IC50 (β-Secretase (BACE1)): 18 µM
14.1 | – | O=C(NCc1cn(C[C@@H]2Cc3c([nH]c4ccccc34)CN2)nn1)c1ccccc1C(=O)c1ccc(O)cc1 [Compound 6d] | 32.86 (±0.19) % | 2.81 (±0.37) % | –
33 | – | N[C@@H](Cc1c[nH]c2ccccc12)Cn1cc(CNC(=O)c2ccccc2C(=O)c2ccc(O)cc2)nn1 [Compound 12d, (S)-N-((1-(2-Amino-3-(1H-indol-3-yl)propyl)-1H-1,2,3-triazol-4-yl)methyl)-2-(4-hydroxybenzoyl)-benzamide] | 13.87 (±0.59) % | 1.56 (±0.51) % | IC50 (amyloid-β (1-42) peptide [4]): 47.5 µM
– | – | O=C1O[C@H]([C@@H](O)CO)C(O)=C1O [Ascorbic acid, reference compound] | – | 53.64 (±0.11) % | IC50 [3]: 94.9 µM
73.6 | 7.19 | COc1ccc2cc(-c3cn(C[C@@H]4Cc5c([nH]c6ccccc56)CN4)nn3)ccc2c1 [Compound 6b, (S)-3-((4-(6-Methoxynaphthalen-2-yl)-1H-1,2,3-triazol-1-yl)me-thyl)-2,3,4,9-tetrahydro-1H-pyrido-[3,4-b]indole] | 12.35 (±0.68) % | – | IC50 (β-Secretase (BACE1)): 18.9 µM
– | 82.9 | COc1cc(/C=C/C(=O)CC(=O)/C=C/c2ccc(O)c(OC)c2)ccc1O [Curcumin, reference compound] | – | – | –
– | – | O=C(O)CN(CCN(CC(=O)O)CC(=O)O)CC(=O)O [EDTA, reference compound] | 98.00 (±0.34) % | – | –
– | – | (S)-1-(1H-Indol-3-yl)-3-(4-(6-methoxynaphthalen-2-yl)-1H-1,2,3-triazol-1-yl)propan-2-amine [Compound 12b] | 10.54 (±0.22) % | – | BACE1 % Inhibition (at 25 µM) (±SEM) (β-Secretase (BACE1); 25 µM): 30.42 (±3.54) %; Anti-Aβ aggregation % Inhibition (at 100 µM) (±SEM) (amyloid-β (1-42) peptide [1]): 34.02 (±10.13) %
68 | – | CC(C)(C)c1ccc(-c2cn(C[C@@H]3Cc4c([nH]c5ccccc45)CN3)nn2)cc1 [Compound 6a, (S)-3-((4-(4-tert-Butylphenyl)-1H-1,2,3-triazol-1-yl)methyl)-2,3,4,9-tetrahydro-1H-pyrido[3,4-b] indole] | 9.67 (±0.32) % | – | IC50 (β-Secretase (BACE1)): 19.8 µM
12.6 | – | O=C(CCc1ccc(O)cc1)NCc1cn(C[C@@H]2Cc3c([nH]c4ccccc34)CN2)nn1 [Compound 6e, (S)-3-((4-(N-(((4-Hydroxyphenyl)propanoyl)azyl)methyl)-1H-1,2,3-triazol-1-yl)methyl)-2,3,4,9-tetra-hydro-1H-pyrido[3,4-b]ind ole] | 20.63 (±0.35) % | 5.45 (±0.33) % | –

Compound | inhibition at 25 µM (β-Secretase (BACE1)) [%] | inhibition at 100 µM (amyloid-β (1-42) peptide [1]) [%] | Fe chelation % Capacity (at 100 µM) (±SEM) [2] | DPPH % Inhibition (at 100 µM) (±SEM) [3] | other results
CC(C)(C)c1ccc(-c2cn(C[C@@H](N)Cc3c[nH]c4ccccc34)nn2)cc1 [Compound 12a, (S)-1-(4-(4-tert-Butylphenyl)-1H-1,2,3-triazol-1-yl)-3-(1H-indol-3-yl)propan-2-amine] | 18.9 | 17.8 | 42.65 (±1.07) % | – | –
N[C@@H](Cc1c[nH]c2ccccc12)Cn1cc(CNC(=O)CCc2ccc(O)cc2)nn1 [Compound 12e, (S)-N-((1-(2-Amino-3-(1H-indol-3-yl)propyl)-1H-1,2,3-triazol-4-yl)methyl)-3-(4-hydroxyphenyl)propanamide] | 7.53 | 36 | 41.42 (±1.13) % | – | –
